We go through five compounds from US20250122193A1, “NOVEL PYRIDOCARBAZOLIUM COMPOUNDS AND MEDICAL USES THEREOF” (MyCural Therapeutics, priority 2021, published 2025).

Data set [1] deals with p53 expression. The data set is described as follows: p53 expression by western blot. Format: cell-based. The conditions noted are these: 5 μM, HCT116 cells. As to the method:
(§1) A) Measurement of MYC mRNA expression by RTqPCR after treatment with MYCMI-7 and different topoisomerase inhibitors at indicated concentrations. […] D) Western blot analysis of p53 and p21 expression after exposure to 5 μM MYCMI-7, ellipticine or camptothecin (CPT) in HCT116 cells. E) Western blot analysis of phospho-ATM, total ATM and p53 expression after exposure to indicated concentrations of MYCMI-7 and ellipticine in A375 cells after 3 hrs treatment.
(§2) For western blot equal amounts of proteins ([…]) were separated on a 4-12% SDS-PAGE gel. Proteins were transferred to Immobilion-P membrane (Millipore) and detected by immunostaining and chemoluminescence (Immobilion western HRP substrate; Millipore). For immunoprecipitations 500-1000 μg of protein was used. […] Briefly, cells were crosslinked with 1% formaldehyde on ice for 6 minutes. Nuclear chromatin was sonicated on ice to fragments from 0.3 kb to 0.5 kb. Nuclear chromatin equivalent to 2.5×10^7 cells was immunoprecipitated with 2 μg antibody.

For data set [2], the target named is Recombinant human Top2a (Homo sapiens, UniProt P11388). The data set is described as follows: Top2 decatenation assay. The data set is classed as biochemical. The conditions noted are these: for effect on TOP2A activity: 1-100 μM. As to the method: Top2 decatenation assay: Recombinant human Top2a (15 nM) was incubated with 80 ng catenated kinetoplast DNA (Topogen, TG2013) in Top2 reaction buffer (50 mM Tris pH8, 150 mM NaCl, 10 mM MgCl2, 0.5 mM DTT, 30 μg/ml BSA) with 1-100 μM of either doxorubicin, MYCMI-7, ellipticine or camptothecin for 10 minutes at 37° C. Drug dilutions were made in a DMSO/H2O solution so that a final concentration of 1% DMSO was consistent across all samples. The reaction was stopped with the addition of SDS to a final concentration of 1% and the Top2a was digested by Proteinase K at 55° C. for 10 minutes. DNA was purified by phenol:chloroform extraction before running on a 1% agarose gel either containing or post-stained with 0.5 μg/ml ethidium bromide. The decatenated products were quantified, normalised to the Top2α+DMSO control and plotted using GraphPad Prism.
First, we utilized an in vitro TOP2A decatenation assay. TOP2 enzymes decatenate kinetoplast DNA (kDNA) converting a network of interlocking DNA rings into individual rings that can be separated by agarose gel electrophoresis.

Data set [3] concerns MYC mRNA. The data set is described as follows: MYC mRNA expression by RT-qPCR. Format: cell-based. The conditions noted are these: 1 μM. As to the method:
as §1

Data set [4] deals with MYC:MAX interaction (Homo sapiens, UniProt P01106). The data set is described as follows: split Gaussia luciferase (GLuc) assay, MYC:MAX. As to conditions: HeLa cells. The data set is classed as cell-based. Details: replacing the existing Zip-gene (GCN4) with full length MYC, MYCN or MAX cDNA; expressed in transfected cells; host or cells: HeLa. As to the method: (§3) A) Molecular structure of MYCMI-7. B-E) split Gaussia luciferase (GLuc) assay. MYC or MYCN and MAX Gluc constructs were co-transfected into HeLa cells together with a firefly luciferase vector. 24 hours post transfection cells were treated with compounds, and after another 17-24 hours cells were harvested and both GLuc and firefly luciferase activities were measured. The mean of three different experiments is shown. Treatment with: B) 5 μM of MYCMI-7, 64 μM 10058-F4 or 5 μM JQ1, respectively, C) 6.5 μM MYCMI-7 on cells expressing MYC:MAX GLuc vs. GCN4:GCN4 GLuc, D) 5 μM MYCMI-7 and 5 μM ellipticine. E) 5 μM MYCMI-7 for various time points. F) in situ proximity ligation assay (isPLA). […] MYC:GAL4 was used as negative control in the isPLA assay. G) Quantification of isPLA dots. (H) Co-immunoprecipitation (co-IP) of endogenous MYC and MAX proteins from MCF7 cells after treatment with 5 μM MYCMI-7 at various times. IP=immunoprecipitation; W=western blot. I) Chromatin immunoprecipitation (ChIP) of MYC at the ODC1 target gene promoter after treatment of cells with 5 μM MYCMI-7 for 6 hours. J) MYC target gene ODC1 expression after treatment with 5 μM MYCMI-7, quantified by qPCR. K) ChIP of MYC at the ODC promoter in MCF7 cells after 5 μM MYCMI-7 treatment for indicated time points. L) Recombinant MYC bHLHZip protein domain immobilized onto a CM5 chip was subjected to various concentrations of MYCMI-7 and the complex of MYCbHLHZip-MYCMI-7 was measured as response units by SPR. The sensogram was produced by subtracting the blank response.
0.2-0.4 μg of each GLuc-construct together with 0.05 μg pCMV-LUC (firefly luciferase) were used per transfection in 12 well plates. 24 hours later cells were treated with compound or DMSO. After another 17 hours, the cells were harvested and lyzed in passive lysis buffer (Promega) supplemented with complete protease inhibitor (Roche). After 60 min incubation at room temperature 20 μM D-luciferin was added (substrate of Firefly luciferase) and luminescence was measured in a Lumat LB9501 (Berthold) or OmegaFluostar (BMG Labtech) luminometer. Directly after, Gaussia luciferase substrate Coelenterazine (Promega) was added to a final concentration of 20 μM in a mixture with “Stop n' Glow” (Promega) and the luciferase activity was measured. The ratio between Gaussia and Firefly luciferase values were calculated and normalized to DMSO-treated control cells.

For data set [5], the target named is T1, MYCN:MAX interaction (Homo sapiens, UniProt P04198).
T1 construct: replacing the existing Zip-gene (GCN4) with full length MYC, MYCN or MAX cDNA; expressed in transfected cells; host or cells: HeLa
T1 sequence (P04198 1-464): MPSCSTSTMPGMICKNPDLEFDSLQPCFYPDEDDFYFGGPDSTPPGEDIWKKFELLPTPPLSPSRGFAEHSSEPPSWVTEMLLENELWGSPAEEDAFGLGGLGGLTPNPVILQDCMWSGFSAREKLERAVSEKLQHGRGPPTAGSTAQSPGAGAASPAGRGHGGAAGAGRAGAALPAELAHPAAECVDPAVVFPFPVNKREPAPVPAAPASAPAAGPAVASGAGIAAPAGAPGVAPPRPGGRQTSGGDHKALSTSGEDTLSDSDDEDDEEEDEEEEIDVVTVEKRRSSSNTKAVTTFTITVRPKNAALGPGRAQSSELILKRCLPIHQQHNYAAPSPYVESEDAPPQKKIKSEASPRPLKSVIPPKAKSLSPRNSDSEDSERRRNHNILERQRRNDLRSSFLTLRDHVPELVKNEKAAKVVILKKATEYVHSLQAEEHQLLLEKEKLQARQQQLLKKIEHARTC
The data set is described as follows: split Gaussia luciferase (GLuc) assay, MYCN:MAX. The data set is classed as cell-based. The conditions noted are these: HeLa cells. As to the method:
as §3, with “K) ChIP of MYC at the ODC promoter in MCF7 cells after 5 μM MYCMI-7 treatment for indicated time points.” left out, “The sensogram was produced by subtracting the blank response.” left out
0.2-0.4 μg of each GLuc-construct together with 0.05 μg pCMV-LUC (firefly luciferase) were used per transfection in 12 well plates. […] After 60 min incubation at room temperature 20 μM D-luciferin was added (substrate of Firefly luciferase) and luminescence was measured in a Lumat LB9501 (Berthold) or OmegaFluostar (BMG Labtech) luminometer. Directly after, Gaussia luciferase substrate Coelenterazine (Promega) was added to a final concentration of 20 μM in a mixture with “Stop n' Glow” (Promega) and the luciferase activity was measured. The ratio between Gaussia and Firefly luciferase values were calculated and normalized to DMSO-treated control cells.

Data set [6] concerns Rat1 fibroblasts TGR1 (wt MYC) and HOMyc3 (reconstituted MYC). The data set is described as follows: WST-1 growth/viability assay, MYC-expressing Rat1 fibroblasts. Format: cell-based, rat. As to conditions: TGR1, HO15.19 and HOMyc3.
Description: A) Immortalized Rat1 fibroblasts with different MYC status; TGR1 (wt MYC), HO15.19 (MYC−/−) and HOMyc3 (HO15.19 with reconstituted MYC) were treated with indicated concentrations of MYCMI-7 for 48 hours. Cell proliferation/viability/metabolic activity was measured using the WST-1 assay. […] “Responsive” and “less responsive”; cell lines with positive and negative log 10 GI50 values, respectively. […] For the WST-1 assays the average of three different experiments performed in triplicates is shown.
Cell growth and viability assays: Cell growth and viability was estimated in triplicates with WST-1 (Roche) or Resazurin sodium salt (Sigma-Aldrich) assays in medium at 37° C. and 5% CO2 for 2 hours after which absorbance or fluorescence, respectively, was measured with an Omega Fluostar (BMG Labtech) in a 96 well plate format.
Data set [7] deals with phosphorylation of ATM. Put plainly: phospho-ATM and p53 by western blot, A375. As to conditions: 5 μM, A375 cells, 3 hrs. Format: cell-based. As to the method:
as §1, §2

Chain of Recombinant human Top2a (P11388 whole entry): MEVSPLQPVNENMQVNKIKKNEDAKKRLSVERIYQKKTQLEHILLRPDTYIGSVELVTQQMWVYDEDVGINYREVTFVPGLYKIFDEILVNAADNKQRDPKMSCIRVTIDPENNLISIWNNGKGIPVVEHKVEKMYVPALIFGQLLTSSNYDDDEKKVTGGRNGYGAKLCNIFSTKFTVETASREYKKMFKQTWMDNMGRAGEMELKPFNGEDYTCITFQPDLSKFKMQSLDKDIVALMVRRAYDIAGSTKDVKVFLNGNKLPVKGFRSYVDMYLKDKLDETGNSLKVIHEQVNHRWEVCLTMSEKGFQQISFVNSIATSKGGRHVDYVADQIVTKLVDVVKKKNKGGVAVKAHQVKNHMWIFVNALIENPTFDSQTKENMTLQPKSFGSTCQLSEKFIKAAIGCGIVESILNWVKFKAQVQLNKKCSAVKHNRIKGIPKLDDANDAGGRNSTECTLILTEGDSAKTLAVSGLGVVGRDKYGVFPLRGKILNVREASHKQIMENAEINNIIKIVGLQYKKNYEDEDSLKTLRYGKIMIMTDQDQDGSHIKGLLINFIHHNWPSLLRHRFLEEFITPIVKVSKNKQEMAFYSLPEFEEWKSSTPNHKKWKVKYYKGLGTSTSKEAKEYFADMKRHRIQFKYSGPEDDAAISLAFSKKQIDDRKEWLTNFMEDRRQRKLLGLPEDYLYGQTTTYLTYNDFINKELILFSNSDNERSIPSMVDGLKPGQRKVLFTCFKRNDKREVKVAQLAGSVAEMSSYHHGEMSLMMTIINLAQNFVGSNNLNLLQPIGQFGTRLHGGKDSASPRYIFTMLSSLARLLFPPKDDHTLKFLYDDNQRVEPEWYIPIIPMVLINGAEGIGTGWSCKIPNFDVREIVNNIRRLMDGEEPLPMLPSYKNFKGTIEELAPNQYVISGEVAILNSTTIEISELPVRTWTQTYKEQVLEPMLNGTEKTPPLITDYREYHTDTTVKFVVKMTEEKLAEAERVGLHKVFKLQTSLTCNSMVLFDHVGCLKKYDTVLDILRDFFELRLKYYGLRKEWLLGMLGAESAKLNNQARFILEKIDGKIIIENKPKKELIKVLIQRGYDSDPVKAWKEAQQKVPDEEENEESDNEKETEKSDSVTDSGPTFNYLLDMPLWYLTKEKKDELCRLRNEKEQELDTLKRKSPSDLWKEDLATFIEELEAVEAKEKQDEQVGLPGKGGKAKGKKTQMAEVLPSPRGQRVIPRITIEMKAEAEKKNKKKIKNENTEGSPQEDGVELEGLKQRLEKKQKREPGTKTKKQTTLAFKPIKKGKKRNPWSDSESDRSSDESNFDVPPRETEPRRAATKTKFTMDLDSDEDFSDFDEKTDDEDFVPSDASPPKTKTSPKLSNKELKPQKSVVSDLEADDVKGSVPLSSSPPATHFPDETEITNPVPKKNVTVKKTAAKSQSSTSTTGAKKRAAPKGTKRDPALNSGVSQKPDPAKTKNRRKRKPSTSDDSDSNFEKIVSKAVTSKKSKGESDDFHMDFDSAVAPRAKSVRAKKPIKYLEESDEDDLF
Chain of MYC:MAX interaction (P01106 16-454): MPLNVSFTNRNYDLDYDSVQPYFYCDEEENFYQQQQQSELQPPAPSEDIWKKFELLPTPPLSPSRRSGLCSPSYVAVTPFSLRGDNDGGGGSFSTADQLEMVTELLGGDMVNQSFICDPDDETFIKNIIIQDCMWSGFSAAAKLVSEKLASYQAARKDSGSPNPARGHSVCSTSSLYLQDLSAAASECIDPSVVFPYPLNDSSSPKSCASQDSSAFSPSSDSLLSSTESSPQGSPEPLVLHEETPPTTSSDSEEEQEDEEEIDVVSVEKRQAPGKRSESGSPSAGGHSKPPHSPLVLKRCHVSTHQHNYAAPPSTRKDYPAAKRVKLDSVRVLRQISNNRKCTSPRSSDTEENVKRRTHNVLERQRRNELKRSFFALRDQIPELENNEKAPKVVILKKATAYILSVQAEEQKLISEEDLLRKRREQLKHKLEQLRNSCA

Turning to `CC[C@@]1(O)C(=O)OCc2c1cc1n(c2=O)Cc2cc3ccccc3nc2-1` [camptothecin, reference compound], the p53 expression entry in data set [1] was “induced p53 expression”. Besides, the “effect on TOP2A activity” value in data set [2] was “no effect”.

For `COc1cccc2c1C(=O)c1c(O)c3c(c(O)c1C2=O)C[C@@](O)(C(=O)CO)C[C@@H]3O[C@H]1C[C@H](N)[C@H](O)[C@H](C)O1` [doxorubicin], the “MYC expression (mRNA)” value in data set [3] is on record as “strongly reduced”. Moreover, in data set [2] (in vitro decatenation of kDNA), the “concentration at which TOP2A inhibition starts” value came to 3 µM and the “concentration of complete TOP2A inhibition” value came out at 10 µM.

`Cc1sc2c(c1C)C(c1ccc(Cl)cc1)=N[C@@H](CC(=O)OC(C)(C)C)c1nnc(C)n1-2` [JQ1]: the “inhibition of MYC:MAX GLuc interaction” value in data set [4] (5 μM) is listed as “only weak effects”. Moreover, in data set [5] (5 μM), the “inhibition of MYCN:MAX GLuc interaction” value is listed as “only weak effects”.

For `Cc1c2ccncc2c(C)c2c1[nH]c1ccccc12` [ellipticine, reference compound], the “inhibition of MYC:MAX GLuc interaction” value in data set [4] (5 μM) is “inactive”. The “growth of Rat1 cell clones irrespective of MYC status” value in data set [6] is “reduced growth of all three cell clones”. In data set [1], the p53 expression result is “induced p53 expression”. In addition, the “phosphorylation of ATM and p53 expression (DDR signaling)” value in data set [7] was “strongly induced”. Further, the “effect on TOP2A activity” value in data set [2] is on record as “no effect”.

Consider `CCc1ccc(/C=C2/SC(=S)NC2=O)cc1` [Example 10058-F4, 10058-F4], for which the “inhibition of MYC:MAX GLuc interaction” value in data set [4] (64 μM) is given as “only weak effects”. The “inhibition of MYCN:MAX GLuc interaction” value in data set [5] (64 μM) is recorded as “only weak effects”.
